Values quoted from earlier work, collected in US12239660B2, “Therapeutic composition and methods” (Viscera Labs, Inc., priority 2018, dated 2025).

Settings: in vivo, po

## O=C(O)c1cc(/N=N/c2ccc(S(=O)(=O)Nc3ccccn3)cc2)ccc1O [sulfasalazin]
  drug released in the small intestine: 12%
